From ChEMBL document CHEMBL4507283, “Data for DCP probe BI-1935” (2021)

Assays:
[1] = system: Leucine-rich repeat serine/threonine-protein kinase 2 (Homo sapiens), Q5S007 [G2019S]; details: Compound concentration 1000.0 nM
[2] = target: Activin receptor type-1B (Homo sapiens) (UniProt P36896); details: Compound concentration 1000.0 nM
[3] = target: Proto-oncogene tyrosine-protein kinase receptor Ret (Homo sapiens) (UniProt P07949); details: Compound concentration 1000.0 nM
[4] = target: Sigma intracellular receptor 2 (Homo sapiens) (UniProt Q5BJF2); details: Compound concentration 10.0 uM
[5] = target: Inhibitor of nuclear factor kappa-B kinase subunit alpha (Homo sapiens) (UniProt O15111); details: Compound concentration 1000.0 nM
[6] = target: Tyrosine-protein kinase Fgr (Homo sapiens) (UniProt P09769); details: Compound concentration 1000.0 nM
[7] = target: 1-phosphatidylinositol 3-phosphate 5-kinase (Homo sapiens) (UniProt Q9Y2I7); details: Compound concentration 1000.0 nM
[8] = target: Nitric oxide synthase 3 (Rattus norvegicus) (UniProt Q62600); assay: CNOS Eurofins-Panlabs selectivity data (BI); details: Compound concentration 10.0 uM
[9] = target: Serine/threonine-protein kinase MARK2 (Homo sapiens) (UniProt Q7KZI7); details: Compound concentration 1000.0 nM
[10] = target: Homeodomain-interacting protein kinase 4 (Homo sapiens) (UniProt Q8NE63); details: Compound concentration 1000.0 nM
[11] = target: Mitogen-activated protein kinase kinase kinase 7 (Homo sapiens) (UniProt O43318); details: Compound concentration 1000.0 nM
[12] = target: Serine/threonine-protein kinase WNK4 (Homo sapiens) (UniProt Q96J92); details: Compound concentration 1000.0 nM
[13] = target: Ephrin type-B receptor 3 (Homo sapiens) (UniProt P54753); details: Compound concentration 1000.0 nM
[14] = target: Calcium/calmodulin-dependent protein kinase type 1 (Homo sapiens) (UniProt Q14012); details: Compound concentration 1000.0 nM
[15] = target: STE20-like serine/threonine-protein kinase (Homo sapiens) (UniProt Q9H2G2); details: Compound concentration 1000.0 nM
[16] = target: Mitogen-activated protein kinase 14 (Homo sapiens) (UniProt Q16539); details: Compound concentration 1000.0 nM
[17] = target: Tyrosine-protein kinase ABL1 (Homo sapiens) (UniProt P00519); details: Compound concentration 1000.0 nM
[18] = target: Phosphatidylinositol 4-phosphate 5-kinase type-1 alpha (Homo sapiens) (UniProt Q99755); details: Compound concentration 1000.0 nM
[19] = target: Fibroblast growth factor receptor 4 (Homo sapiens) (UniProt P22455); details: Compound concentration 1000.0 nM
[20] = target: Homeodomain-interacting protein kinase 3 (Homo sapiens) (UniProt Q9H422); details: Compound concentration 1000.0 nM
[21] = target: Mitogen-activated protein kinase kinase kinase kinase 5 (Homo sapiens) (UniProt Q9Y4K4); details: Compound concentration 1000.0 nM
[22] = target: Insulin-like growth factor 1 receptor (Homo sapiens) (UniProt P08069); details: Compound concentration 1000.0 nM
[23] = system: Hepatocyte growth factor receptor (Homo sapiens), P08581 [M1250T]; details: Compound concentration 1000.0 nM
[24] = target: Activated CDC42 kinase 1 (Homo sapiens) (UniProt Q07912); details: Compound concentration 1000.0 nM
[25] = target: Myosin light chain kinase (Homo sapiens) (UniProt Q32MK0); details: Compound concentration 1000.0 nM
[26] = target: 5-hydroxytryptamine receptor 2C (Homo sapiens) (UniProt P28335); details: Compound concentration 10.0 uM
[27] = target: Protein kinase C epsilon type (Homo sapiens) (UniProt Q02156); details: Compound concentration 1000.0 nM
[28] = target: G protein-coupled receptor kinase 4 (Homo sapiens) (UniProt P32298); details: Compound concentration 1000.0 nM
[29] = target: Acetylcholine receptor subunit alpha (Homo sapiens) (UniProt P02708); assay: NACH/H Eurofins-Panlabs selectivity data (BI); details: Compound concentration 10.0 uM
[30] = target: Fibroblast growth factor receptor 1 (Homo sapiens) (UniProt P11362); details: Compound concentration 1000.0 nM
[31] = target: Phosphatidylinositol 4,5-bisphosphate 3-kinase catalytic subunit beta isoform (Homo sapiens) (UniProt P42338); details: Compound concentration 1000.0 nM
[32] = system: Receptor-type tyrosine-protein kinase FLT3 (Homo sapiens), P36888 [UNDEFINED MUTATION]; details: Compound concentration 1000.0 nM
[33] = target: Mitogen-activated protein kinase 8 (Homo sapiens) (UniProt P45983); details: Compound concentration 1000.0 nM
[34] = target: Non-receptor tyrosine-protein kinase TYK2 (Homo sapiens) (UniProt P29597); details: Compound concentration 1000.0 nM
[35] = target: Epidermal growth factor receptor (Homo sapiens) (UniProt P00533); details: Compound concentration 1000.0 nM
[36] = target: Serine/threonine-protein kinase WNK1 (Homo sapiens) (UniProt Q9H4A3); details: Compound concentration 1000.0 nM
[37] = target: Vascular endothelial growth factor receptor 1 (Homo sapiens) (UniProt P17948); details: Compound concentration 1000.0 nM
[38] = target: cGMP-dependent protein kinase 1 (Homo sapiens) (UniProt Q13976); details: Compound concentration 1000.0 nM
[39] = target: Serine/threonine-protein kinase LATS1 (Homo sapiens) (UniProt O95835); details: Compound concentration 1000.0 nM
[40] = target: Tyrosine-protein kinase ABL2 (Homo sapiens) (UniProt P42684); details: Compound concentration 1000.0 nM
[41] = target: Histamine H2 receptor (Homo sapiens) (UniProt P25021); assay: H2/H Eurofins-Panlabs selectivity data (BI); details: Compound concentration 10.0 uM
[42] = target: Peripheral plasma membrane protein CASK (Homo sapiens) (UniProt O14936); details: Compound concentration 1000.0 nM
[43] = target: Muscarinic acetylcholine receptor M4 (Homo sapiens) (UniProt P08173); details: Compound concentration 10.0 uM
[44] = target: Tyrosine-protein kinase Mer (Homo sapiens) (UniProt Q12866); details: Compound concentration 1000.0 nM
[45] = target: D(4) dopamine receptor (Homo sapiens) (UniProt P21917); details: Compound concentration 10.0 uM
[46] = target: D(2) dopamine receptor (Homo sapiens) (UniProt P14416); assay: D2L/H Eurofins-Panlabs selectivity data (BI); details: Compound concentration 10.0 uM

Sequence of Ephrin type-B receptor 3 (Homo sapiens) (P54753 whole entry): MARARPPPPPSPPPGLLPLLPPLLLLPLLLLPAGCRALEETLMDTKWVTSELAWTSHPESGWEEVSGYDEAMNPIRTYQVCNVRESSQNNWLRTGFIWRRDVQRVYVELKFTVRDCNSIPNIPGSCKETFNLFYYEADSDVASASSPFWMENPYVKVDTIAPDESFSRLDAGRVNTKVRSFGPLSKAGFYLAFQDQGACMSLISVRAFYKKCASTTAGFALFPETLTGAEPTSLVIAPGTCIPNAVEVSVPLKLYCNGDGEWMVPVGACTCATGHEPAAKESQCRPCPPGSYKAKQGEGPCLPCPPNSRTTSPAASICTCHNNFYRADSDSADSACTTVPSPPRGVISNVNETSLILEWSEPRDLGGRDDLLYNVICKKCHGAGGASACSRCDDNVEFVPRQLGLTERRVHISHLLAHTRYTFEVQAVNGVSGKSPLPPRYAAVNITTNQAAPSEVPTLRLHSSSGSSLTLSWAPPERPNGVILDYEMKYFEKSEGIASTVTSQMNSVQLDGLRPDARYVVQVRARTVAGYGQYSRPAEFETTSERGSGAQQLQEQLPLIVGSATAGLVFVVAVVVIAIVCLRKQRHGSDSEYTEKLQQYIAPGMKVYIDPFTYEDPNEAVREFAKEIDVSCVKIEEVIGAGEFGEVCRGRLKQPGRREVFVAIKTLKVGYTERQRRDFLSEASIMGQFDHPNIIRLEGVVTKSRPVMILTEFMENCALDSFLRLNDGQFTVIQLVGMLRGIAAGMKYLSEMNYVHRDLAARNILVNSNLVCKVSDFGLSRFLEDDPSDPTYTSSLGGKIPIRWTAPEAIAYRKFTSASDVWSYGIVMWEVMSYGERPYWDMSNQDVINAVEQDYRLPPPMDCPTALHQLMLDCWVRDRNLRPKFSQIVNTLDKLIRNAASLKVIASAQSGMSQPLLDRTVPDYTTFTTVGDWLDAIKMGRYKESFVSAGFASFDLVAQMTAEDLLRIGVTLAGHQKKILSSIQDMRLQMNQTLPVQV
Sequence of Phosphatidylinositol 4,5-bisphosphate 3-kinase catalytic subunit beta isoform (Homo sapiens) (P42338 whole entry, looked up, canonical isoform): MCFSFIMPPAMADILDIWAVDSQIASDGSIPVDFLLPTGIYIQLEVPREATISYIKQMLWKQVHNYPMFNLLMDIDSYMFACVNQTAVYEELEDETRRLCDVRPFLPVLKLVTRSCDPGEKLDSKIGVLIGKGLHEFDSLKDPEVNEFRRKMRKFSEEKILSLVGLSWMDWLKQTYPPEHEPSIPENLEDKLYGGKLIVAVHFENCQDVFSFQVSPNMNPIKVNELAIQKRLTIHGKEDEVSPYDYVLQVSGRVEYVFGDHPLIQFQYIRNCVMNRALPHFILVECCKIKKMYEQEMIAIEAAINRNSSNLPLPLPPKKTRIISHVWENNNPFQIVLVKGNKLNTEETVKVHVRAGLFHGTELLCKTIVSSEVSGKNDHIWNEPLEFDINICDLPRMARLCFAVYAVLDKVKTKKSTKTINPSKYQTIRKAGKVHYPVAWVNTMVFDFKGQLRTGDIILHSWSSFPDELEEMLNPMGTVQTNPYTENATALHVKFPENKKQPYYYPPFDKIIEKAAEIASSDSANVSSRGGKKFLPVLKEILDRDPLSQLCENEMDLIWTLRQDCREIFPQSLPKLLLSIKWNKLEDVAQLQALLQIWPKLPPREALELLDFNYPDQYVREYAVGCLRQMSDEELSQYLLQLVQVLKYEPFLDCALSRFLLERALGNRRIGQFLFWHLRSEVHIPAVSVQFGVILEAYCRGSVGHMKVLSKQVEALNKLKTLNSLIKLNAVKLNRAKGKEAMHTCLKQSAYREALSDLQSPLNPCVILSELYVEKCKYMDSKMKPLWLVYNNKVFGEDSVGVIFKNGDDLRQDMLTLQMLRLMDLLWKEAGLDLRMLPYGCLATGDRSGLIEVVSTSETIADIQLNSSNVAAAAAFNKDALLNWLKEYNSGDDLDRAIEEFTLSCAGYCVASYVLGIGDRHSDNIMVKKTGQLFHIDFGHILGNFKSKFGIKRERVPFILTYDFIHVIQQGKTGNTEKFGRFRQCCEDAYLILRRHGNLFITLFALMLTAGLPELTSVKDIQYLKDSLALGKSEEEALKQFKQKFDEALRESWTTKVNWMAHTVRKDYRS
Sequence of Tyrosine-protein kinase ABL2 (Homo sapiens) (P42684 whole entry): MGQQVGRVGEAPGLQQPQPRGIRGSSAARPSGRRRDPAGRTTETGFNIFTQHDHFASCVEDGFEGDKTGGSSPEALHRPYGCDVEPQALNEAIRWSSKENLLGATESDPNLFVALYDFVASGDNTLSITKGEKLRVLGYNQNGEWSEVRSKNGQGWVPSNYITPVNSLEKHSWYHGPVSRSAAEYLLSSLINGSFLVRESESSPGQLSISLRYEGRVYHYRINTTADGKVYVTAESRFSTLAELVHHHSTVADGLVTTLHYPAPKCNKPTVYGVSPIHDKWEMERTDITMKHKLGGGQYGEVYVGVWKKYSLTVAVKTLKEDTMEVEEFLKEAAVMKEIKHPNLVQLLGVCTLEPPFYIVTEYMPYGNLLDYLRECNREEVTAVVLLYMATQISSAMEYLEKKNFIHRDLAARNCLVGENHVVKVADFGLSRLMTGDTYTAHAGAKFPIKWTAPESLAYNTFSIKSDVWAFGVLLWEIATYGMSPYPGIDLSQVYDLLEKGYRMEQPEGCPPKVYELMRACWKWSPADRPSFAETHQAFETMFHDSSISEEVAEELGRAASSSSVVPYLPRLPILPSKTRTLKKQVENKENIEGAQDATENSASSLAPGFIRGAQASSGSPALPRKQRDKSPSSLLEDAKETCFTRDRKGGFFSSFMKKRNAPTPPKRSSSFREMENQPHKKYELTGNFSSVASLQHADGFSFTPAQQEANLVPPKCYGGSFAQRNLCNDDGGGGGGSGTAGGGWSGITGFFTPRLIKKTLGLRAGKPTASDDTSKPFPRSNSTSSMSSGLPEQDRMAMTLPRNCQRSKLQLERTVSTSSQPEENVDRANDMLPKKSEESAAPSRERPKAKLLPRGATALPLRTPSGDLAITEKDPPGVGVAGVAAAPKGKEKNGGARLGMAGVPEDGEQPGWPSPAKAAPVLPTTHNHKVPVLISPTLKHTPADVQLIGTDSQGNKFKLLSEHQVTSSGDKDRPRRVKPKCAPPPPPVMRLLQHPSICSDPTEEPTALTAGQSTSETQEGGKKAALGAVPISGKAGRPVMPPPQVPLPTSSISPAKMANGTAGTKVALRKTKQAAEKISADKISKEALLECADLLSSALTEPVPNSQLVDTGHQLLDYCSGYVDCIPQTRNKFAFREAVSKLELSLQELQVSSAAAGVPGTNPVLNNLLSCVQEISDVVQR
Sequence of Tyrosine-protein kinase Fgr (Homo sapiens) (P09769 2-529 limits assumed): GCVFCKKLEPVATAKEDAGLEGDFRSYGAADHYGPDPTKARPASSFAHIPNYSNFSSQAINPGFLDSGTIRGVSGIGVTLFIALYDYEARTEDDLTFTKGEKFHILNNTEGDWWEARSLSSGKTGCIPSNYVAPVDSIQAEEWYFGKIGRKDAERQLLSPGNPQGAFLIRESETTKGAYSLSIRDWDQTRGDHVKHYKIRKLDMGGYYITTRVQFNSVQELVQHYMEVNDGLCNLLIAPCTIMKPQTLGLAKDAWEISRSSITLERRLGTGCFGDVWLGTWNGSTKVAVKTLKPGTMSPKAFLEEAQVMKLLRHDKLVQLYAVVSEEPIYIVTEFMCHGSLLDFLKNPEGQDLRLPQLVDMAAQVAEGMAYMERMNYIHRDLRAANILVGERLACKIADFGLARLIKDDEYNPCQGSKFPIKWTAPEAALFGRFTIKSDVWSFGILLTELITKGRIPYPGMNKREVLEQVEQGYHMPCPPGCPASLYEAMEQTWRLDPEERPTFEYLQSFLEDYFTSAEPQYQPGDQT
Sequence of Tyrosine-protein kinase ABL1 (Homo sapiens) (P00519 whole entry): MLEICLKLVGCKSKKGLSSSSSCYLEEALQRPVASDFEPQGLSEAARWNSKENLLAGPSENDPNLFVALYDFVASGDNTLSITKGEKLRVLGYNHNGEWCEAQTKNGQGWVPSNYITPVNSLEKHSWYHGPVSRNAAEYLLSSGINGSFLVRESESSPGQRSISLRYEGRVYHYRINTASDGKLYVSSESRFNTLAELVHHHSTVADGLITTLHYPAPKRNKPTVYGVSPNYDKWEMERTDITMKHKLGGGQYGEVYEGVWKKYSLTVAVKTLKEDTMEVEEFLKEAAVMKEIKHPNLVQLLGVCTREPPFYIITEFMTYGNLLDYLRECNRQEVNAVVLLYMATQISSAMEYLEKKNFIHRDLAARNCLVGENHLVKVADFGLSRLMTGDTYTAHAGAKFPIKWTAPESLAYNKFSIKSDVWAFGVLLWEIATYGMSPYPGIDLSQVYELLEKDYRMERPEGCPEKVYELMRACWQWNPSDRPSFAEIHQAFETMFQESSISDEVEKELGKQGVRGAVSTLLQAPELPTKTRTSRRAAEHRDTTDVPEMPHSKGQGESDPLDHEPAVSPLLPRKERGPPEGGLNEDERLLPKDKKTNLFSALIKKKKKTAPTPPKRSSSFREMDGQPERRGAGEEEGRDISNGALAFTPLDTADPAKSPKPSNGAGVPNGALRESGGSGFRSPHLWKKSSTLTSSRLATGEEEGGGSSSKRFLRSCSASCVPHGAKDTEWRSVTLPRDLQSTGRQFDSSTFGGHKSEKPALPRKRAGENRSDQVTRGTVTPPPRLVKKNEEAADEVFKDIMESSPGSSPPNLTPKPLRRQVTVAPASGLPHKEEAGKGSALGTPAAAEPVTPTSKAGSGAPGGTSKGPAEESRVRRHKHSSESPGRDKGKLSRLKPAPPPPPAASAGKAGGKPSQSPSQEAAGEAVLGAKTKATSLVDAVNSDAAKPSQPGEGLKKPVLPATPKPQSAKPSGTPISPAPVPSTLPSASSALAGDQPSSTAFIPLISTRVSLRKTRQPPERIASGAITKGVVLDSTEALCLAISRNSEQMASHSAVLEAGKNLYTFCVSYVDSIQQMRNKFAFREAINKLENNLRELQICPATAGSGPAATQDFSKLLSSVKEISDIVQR
Sequence of Sigma intracellular receptor 2 (Homo sapiens) (Q5BJF2 whole entry): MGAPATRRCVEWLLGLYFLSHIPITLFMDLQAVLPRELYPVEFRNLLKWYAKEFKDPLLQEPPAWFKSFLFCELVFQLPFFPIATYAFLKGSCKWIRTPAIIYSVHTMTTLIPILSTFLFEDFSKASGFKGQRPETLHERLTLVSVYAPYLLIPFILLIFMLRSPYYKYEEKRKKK

CCOCCn1cc(C(=O)Nc2ccc(-n3nc(-c4cccnc4)cc3C(F)(F)F)cn2)ccc1=O [BI 1935]
inactive: residual activity [1] 100% | residual activity [2] 79% | residual activity [3] 83% | inhibition [4] -2.98% | residual activity [5] 100% | residual activity [6] 100% | residual activity [7] 97% | residual activity [8] 112% | residual activity [9] 100% | residual activity [10] 100% | residual activity [11] 90% | residual activity [12] 91% | residual activity [13] 89% | residual activity [14] 100% | residual activity [15] 100% | residual activity [16] 100% | residual activity [17] 94% | residual activity [18] 100% | residual activity [19] 100% | residual activity [20] 76% | residual activity [21] 95% | residual activity [22] 96% | residual activity [23] 96% | residual activity [24] 81% | residual activity [25] 97% | inhibition [26] 3.75% | residual activity [27] 100% | residual activity [28] 100% | residual activity [29] 114% | residual activity [30] 100% | residual activity [31] 82% | residual activity [32] 79% | residual activity [33] 72% | residual activity [34] 77% | residual activity [35] 100% | residual activity [36] 82% | residual activity [37] 100% | residual activity [38] 98% | residual activity [39] 69% | residual activity [40] 87% | residual activity [41] 106% | residual activity [42] 85% | inhibition [43] 4.25% | residual activity [44] 83% | inhibition [45] -3.89% | residual activity [46] 97%
